Laboratory results as given in patent US7585938B2, “Gamma-secretase inhibitors” (priority 2002, dated 2009).
≈ marks a conversion by molar mass, not a printed value.

Key:
γ-secretase [1] = test: Amyloid protein determination by ELISA in culture supernatant of COS cells with introduced London-type (Val717Ile) APP695 gene; format: cell-based, simian; conditions: for Inhibition rate (%) Total Aβ: 100 µM
Source text: (§1) The human APP695 gene used in this example (whose nucleotide sequence in its coding region is shown as SEQ ID NO:6) was what had been screened from a cDNA library prepared from the dead brain of a normal human by a conventional method, and its entire nucleotide sequence was confirmed by a conventional method. Briefly, about 1 g of frozen cerebral tissue was phenol-treated and the supernatant aqueous solution was collected. After repeating this process, mRNA was precipitated by addition of ethanol. After dissolving in 20 mM tris-HCl, pH 8., 0.1 mM EDTA, cDNA was synthesized with reverse transcriptase using oligo-dT primers and the mRNA as a template. After remaining RNA was digested with RNase, using thus obtained single-stranded cDNA as a template, double-stranded cDNA was synthesized with DNA polymerase. The double-stranded cDNA was then blunt-ended with T4 DNA polymerase. Following introduction of methylation into a EcoR1 restriction site using EcoR1 methylase, an EcoR1 linker adapter was ligated using ligase. After removal of unreacted free adapter by gel filtration, ligation to λgt11 vector was effected using DNA ligase, and thus ligated product was incorporated into λ-phage using a packaging kit. E. coli cells in agar plates were infected with the λ-phage thus obtained, and the solution containing thus proliferated phage was used as cDNA library. For APP cDNA cloning, oligonucleotides that were anticipated based on the amyloid protein were radio-labeled using γ^32P-ATP and DNA kinase to provide the labeled nucleotides as probes. 10^6 pfu (plaque forming units) of phage were allowed to form plaques on agar plates, and brought into contact with a nylon membrane. The phage DNAs that stuck to the membrane were denaturated to single-stranded DNAs by alkali treatment of the nylon membrane, and the membrane then was neutralized, to which, after incubation in a solution containing salmon sperm DNAs, the ^32P radio-labeled nucleotide probes were added and allowed to hybridize for 12 hours. At this stage, where aimed APP gene incorporated to the phage and one of the oligonucleotides were mutually complementary in their sequences, they would form a double-stranded DNA. The nylon membrane was then exposed to X-ray film, and plaques on the agar plates corresponding to spots of exposure were identified with phages carrying APP gene (fragment). By repeating this process, a single phage was finally obtained. The nucleotide sequence of the APP gene incorporated into the phage was determined by publicly known Sanger method.
(§2) APP gene was efficiently introduced from outside into COS cells, which is a cultured cell line of simian kidney's origin, using Lipofectamine Plus reagent (Invitrogen K.K.) according to its protocol. Briefly, 1 μg of APP gene was dissolved in 100 μl of OPTI-MEM, mixed with 6 μl of Plus reagent and left to stand for 15 minutes at room temperature. In parallel, 4 μl of Lipofectamine dissolved in 100 μl of OPTI-MEM medium was prepared. This was then mixed with the APP gene solution, and left to stand for further 15 minutes. Six-well culture plates were provided in advance in each well of which was placed 800 μl of culture that had been prepared by culturing COS cells at 75% to 80% cell density in a DMEM medium supplemented with 10% fetal bovine serum, and then replacing the medium with OPTI-MEM medium. Two hundred pI of the reaction mixture containing the gene were added to each culture well. Twelve hours after introduction of the gene, the medium was changed from the OPTI-MEM medium containing the introduced gene to a 10% fetal bovine serum-supplemented DMEM medium free of the introduced gene. To this culture, the compound obtained in Example 1 was added. After 36 to 48 hours, culture supernatant was collected, transferred to centrifuging tubes, and centrifuged at 10,000 r.p.m. at room temperature for 5 minutes. The supernatant was used as a sample containing amyloid protein. […]

γ-secretase [2] = test: Amyloid protein determination by ELISA in culture supernatant of COS cells with introduced Sweden-type APP695 gene; format: cell-based, simian; conditions: for Inhibition rate (%) Aβ42(43) / Inhibition rate (%) Total Aβ: 100 µM
Source text: as §1, §2

γ-secretase [3] = test: Amyloid protein determination by ELISA in culture supernatant of COS cells with introduced wild-type human APP695 gene; format: cell-based, simian; conditions: for Inhibition rate (%) Aβ42(43) / Inhibition rate (%) Total Aβ: 100 µM
Source text: as §1, §2

[4] = Examination of solubility, visually and by microscopy; format: physicochemical
Source text: The compound synthesized in Example 1 was examined for its solubility, visually as well as by microscopy.

γ-secretase [5] = test: Amyloid protein determination by ELISA in cells with introduced APP artificial fragment C100 instead of APP695; format: cell-based, simian; conditions: Inhibitor 100 μM; for Inhibition rate (%) Aβ40 / Inhibition rate (%) Aβ42(43): 100 µM
γ-secretase [6] = target: T1, γ-secretase (Homo sapiens, UniProt P49768); test: Amyloid protein determination by ELISA in IMR32 cells with introduced human APP695 gene carrying the Sweden mutation; format: cell-based
T1 construct: endogenous in cells; host or cells: IMR32 cells (transfected only with the substrate APP gene)
Method: APP gene was efficiently introduced from outside into COS cells, which is a cultured cell line of simian kidney's origin, using Lipofectamine Plus reagent (Invitrogen K.K.) according to its protocol. Briefly, 1 μg of APP gene was dissolved in 100 μl of OPTI-MEM, mixed with 6 μl of Plus reagent and left to stand for 15 minutes at room temperature. In parallel, 4 μl of Lipofectamine dissolved in 100 μl of OPTI-MEM medium was prepared. This was then mixed with the APP gene solution, and left to stand for further 15 minutes. Six-well culture plates were provided in advance in each well of which was placed 800 μl of culture that had been prepared by culturing COS cells at 75% to 80% cell density in a DMEM medium supplemented with 10% fetal bovine serum, and then replacing the medium with OPTI-MEM medium. Two hundred pI of the reaction mixture containing the gene were added to each culture well. Twelve hours after introduction of the gene, the medium was changed from the OPTI-MEM medium containing the introduced gene to a 10% fetal bovine serum-supplemented DMEM medium free of the introduced gene. To this culture, the compound obtained in Example 1 was added. After 36 to 48 hours, culture supernatant was collected, transferred to centrifuging tubes, and centrifuged at 10,000 r.p.m. at room temperature for 5 minutes. The supernatant was used as a sample containing amyloid protein. The shorter and the longer amyloid protein components contained in each sample can be separately determined using a commercially available ELISA kit for amyloid protein determination (KHB3441: Signal Select™ Human ⊖ Amyloid1-42 ELISA Kit, or KHB3481: Signal Select™ Human β Amyloid1-40 ELISA Kit, BioSource International, Inc. CA, USA). Those ELISA kits for amyloid determination included 96-well ELISA plates coated with a primary antibody to these two types of amyloid proteins. Following eliminating non-specific antigen-antibody reactions by allowing a usual non-specific blocking reaction, a sample medium containing the amyloid protein to be measured was reacted. Then, after usual washing, one of secondary antibodies was added. The secondary antibodies consisted of two deferent antibodies that can distinguish between the two types of amyloid proteins, the one is the shorter amyloid protein and the other is the longer amyloid antibody, without no cross reactivity. The difference between the two amyloid proteins is the absence or presence of the two amino acid residues (isoleucine and alanine) at their carboxyl terminus. The antibody that detects the former is considered to recognize valine at the carboxyl terminus and the antibody that detects the latter is thought to recognize the alanine.
The compounds (1′a) and (1′b) obtained above were measured for inhibitory activity by the same method as in Example 3. As the system for evaluation, however, IMR32, a neural system cell line of human origin, was used after introducing to it a human APP695 gene into which the Sweden mutation had been incorporated.

[7] = Inhibitor 100 μM, London-type APP695, COS cells
[8] = London-type APP695, inhibitor 100 μM (Table 2)
[9] = Inhibitor 100 μM, Sweden-type APP695, COS cells
[10] = Sweden-type APP695, inhibitor 100 μM (Table 2), listed as Compound
[11] = Sweden-type APP695, inhibitor 100 μM (Table 2), listed as inhibitor
[12] = inhibitor 100 μM (Table 2), listed as Compound
[13] = inhibitor 100 μM (Table 2), listed as inhibitor

COC(=O)[C@H](CC(C)C)NC(=O)[C@H](CCSC)NC(=O)[C@@H](C[C@@H](O)[C@H](CC(C)C)NC(=O)OC(C)(C)C)C(C)C [Compound 1, Boc-Leu*-Val-Met-Leu-OMe]
Aβ40 (γ-secretase [1]; [7]): 151 pg/mL | Aβ42(43) (γ-secretase [1]; [7]): 855 pg/mL | Ratio of Aβ42(43)/Aβ40 (γ-secretase [1]; [7]): 5.66 | inhibitory activity on amyloid protein production (γ-secretase [1]; London mutation (Val717Ile), compared with wild-type sequence): nearly the same level of inhibitory activity as that noted on the wild-type sequence | Inhibition rate (%) Aβ42 (γ-secretase [1]; [8]): 98% | Inhibition rate (%) Aβ42(43) (γ-secretase [1]; [8]): 70% | Inhibition rate (%) Total Aβ (γ-secretase [1]; London-type APP695, inhibitor 100 μM (Table 2), listed as Compound): 89% | Inhibition rate (%) Total Aβ (γ-secretase [1]; London-type APP695, inhibitor 100 μM (Table 2), listed as inhibitor): more than 80% | Aβ40 (γ-secretase [2]; [9]): 1726 pg/mL | Aβ42(43) (γ-secretase [2]; [9]): 1311 pg/mL | Ratio of Aβ42(43)/Aβ40 (γ-secretase [2]; [9]): 0.76 | inhibitory activity for Aβ40 (γ-secretase [2]; Sweden double mutation): about 90% | Inhibition rate (%) Aβ40 (γ-secretase [2]; Sweden-type APP695, inhibitor 100 μM (Table 2)): 90% | Inhibition rate (%) Aβ42(43) (γ-secretase [2]; [10]): 48% | Inhibition rate (%) Total Aβ (γ-secretase [2]; [10]): 84% | Inhibition rate (%) Aβ42(43) (γ-secretase [2]; [11]): about 48% | Inhibition rate (%) Total Aβ (γ-secretase [2]; [11]): more than 80% | inhibitory activity for Aβ40 production (γ-secretase [3]): about 98% | Aβ40 (γ-secretase [3]; Inhibitor 100 μM, COS cells): 218 pg/mL | Aβ42(43) (γ-secretase [3]; Inhibitor 100 μM, COS cells): 415 pg/mL | Ratio of Aβ42(43)/Aβ40 (γ-secretase [3]; Inhibitor 100 μM, COS cells): 1.90 | Inhibition rate (%) Aβ42 (γ-secretase [3]; inhibitor 100 μM (Table 2)): 98% | Inhibition rate (%) Aβ42(43) (γ-secretase [3]; [12]): 71% | Inhibition rate (%) Total Aβ (γ-secretase [3]; [12]): 98% | Inhibition rate (%) Aβ42(43) (γ-secretase [3]; [13]): about 71% | Inhibition rate (%) Total Aβ (γ-secretase [3]; [13]): about 98% | solubility ([4]; DMEM medium containing 10% fetal bovine serum, plasma or biological fluid, concentration 10 ng/ml): > 0.01 µg/mL | solubility ([4]; DMEM medium containing 10% fetal bovine serum, plasma or biological fluid, concentration 1 μg/ml): 0.01 to 1 µg/mL (≈ 0.017 to 1.7 µM) | solubility ([4]; DMEM medium containing 10% fetal bovine serum, plasma or biological fluid, concentration 100 μg/ml): < 100 µg/mL | solubility ([4]; DMSO, organic solvent or mixture, concentration 10 ng/ml): > 0.01 µg/mL | solubility ([4]; DMSO, organic solvent or mixture, concentration 1 μg/ml): > 1 µg/mL | solubility ([4]; DMSO, organic solvent or mixture, concentration 100 μg/ml): > 100 µg/mL | solubility ([4]; phosphate buffer, pH 7, aqueous buffer, Phosphate buffer (pH 7.0), concentration 10 ng/ml): > 0.01 µg/mL | solubility ([4]; phosphate buffer, pH 7, aqueous buffer, Phosphate buffer (pH 7.0), concentration 1 μg/ml): 0.01 to 1 µg/mL (≈ 0.017 to 1.7 µM) | solubility ([4]; phosphate buffer, pH 7, aqueous buffer, Phosphate buffer (pH 7.0), concentration 100 μg/ml): < 100 µg/mL | solubility ([4]; physiological saline, saline or isotonic, concentration 10 ng/ml): > 0.01 µg/mL | solubility ([4]; physiological saline, saline or isotonic, concentration 1 μg/ml): 0.01 to 1 µg/mL (≈ 0.017 to 1.7 µM) | solubility ([4]; physiological saline, saline or isotonic, concentration 100 μg/ml): < 100 µg/mL | Aβ40 (γ-secretase [5]): 100 pg/mL | Aβ42(43) (γ-secretase [5]): 62 pg/mL | Inhibition rate (%) Total Aβ (γ-secretase [5]): 85% | Total Aβ (γ-secretase [5]): 162 pg/mL | Inhibition rate (%) Aβ40 (γ-secretase [5]; listed as Inhibitor): 89% | Inhibition rate (%) Aβ42(43) (γ-secretase [5]; listed as Inhibitor): 51% | Inhibition rate (%) Aβ40 (γ-secretase [5]; listed as inhibitor): about 90% | Inhibition rate (%) Aβ42(43) (γ-secretase [5]; listed as inhibitor): about 50%

t-But-OCO-Thr*-Leu-Val-Met-NH-Bzl [Compound 1′b]
Aβ40 (γ-secretase [6]; 10 μM): 72 pg/mL | Inhibition rate (%) (γ-secretase [6]; 10 μM): 38% | Aβ40 (γ-secretase [6]; 100 μM): 26 pg/mL | Inhibition rate (%) (γ-secretase [6]; 100 μM): 78%

CSCC[C@H](NC(=O)[C@@H](NC(=O)[C@H](CC(C)C)C[C@@H](O)[C@@H](NC(=O)OC(C)(C)C)[C@@H](C)OC(C)(C)C)C(C)C)C(=O)NCc1ccccc1 [Compound 1′a, t-But-OCO-Thr*-Leu-Val-Met-NH-Bzl]
Aβ40 (γ-secretase [6]; 10 μM): 31 pg/mL | Aβ40 (γ-secretase [6]; 100 μM): 0 pg/mL | inhibition at 10 µM (γ-secretase [6]; IMR-32, Aβ40, 10 μM, read-out: Inhibition rate (%)): 73% | inhibition at 100 µM (γ-secretase [6]; IMR-32, Aβ40, 100 μM, read-out: Inhibition rate (%)): 100%
